Patent US10292391B2, “Pesticidally active 1,2,4-triazole derivatives with sulphur containing substituents” (Syngenta Participations AG, priority 2015, dated 2019)

Assays:
Format in all cases: in vivo
[1] = tested on: Spodoptera littoralis (Egyptian Cotton Leaf Worm); experiment: Activity against Spodoptera littoralis, sprayed cotton leaf discs; conditions: foliar, 72 h, application rate of 200 ppm, L1 larvae, 3 days after infestation, read-out: control (at least one of mortality, anti-feedant effect, and growth inhibition)
Procedure: Cotton leaf discs were placed on agar in 24-well microtiter plates and sprayed with aqueous test solutions prepared from 10,000 ppm DMSO stock solutions. After drying the leaf discs were infested with five L1 larvae. The samples were assessed for mortality, anti-feedant effect, and growth inhibition in comparison to untreated samples 3 days after infestation. Control of Spodoptera littoralis by a test sample is when at least one of mortality, anti-feedant effect, and growth inhibition is higher than the untreated sample.

[2] = tested on: Myzus persicae (Green Peach Aphid); experiment: Activity against Myzus persicae, sprayed sunflower leaf discs; conditions: foliar, 144 h, application rate of 200 ppm, aphid population of mixed ages, 6 days after infestation
Procedure: (§1) Sunflower leaf discs were placed on agar in a 24-well microtiter plate and sprayed with aqueous test solutions prepared from 10,000 ppm DMSO stock solutions. After drying, the leaf discs were infested with an aphid population of mixed ages. The samples were assessed for mortality 6 days after infestation.

[3] = tested on: Spodoptera littoralis (Egyptian Cotton Leaf Worm); experiment: Activity against Spodoptera littoralis, systemic via lettuce grown on treated agar; conditions: 144 h, test rate of 12.5 ppm, root uptake by lettuce, 6 days after infestation, read-out: effect in at least one of the three categories (mortality, anti-feedancy, or growth inhibition)
Excerpt: Test compounds were applied by pipette from 10,000 ppm DMSO stock solutions into 24-well plates and mixed with agar. Lettuce seeds were placed on the agar and the multi well plate was closed by another plate which contains also agar. After 7 days the roots have absorbed the compound and the lettuce has grown into the lid plate. The lettuce leafs were now cut off into the lid plate. Spodoptera eggs were pipetted through a plastic stencil on a humid gel blotting paper and the plate closed with it. The samples were assessed for mortality, anti-feedant effect and growth inhibition in comparison to untreated samples 6 days after infestation.

[4] = tested on: Thrips tabaci (Onion Thrips); experiment: Activity against Thrips tabaci, sprayed sunflower leaf discs; conditions: foliar, 144 h, application rate of 200 ppm, thrips population of mixed ages, 6 days after infestation
Procedure: as §1, with “in” for “in a”, “plates” for “plate”, “drying” for “drying,”, “a thrips” for “an aphid”

[5] = tested on: Frankliniella occidentalis (Western Flower Thrips); experiment: Activity against Frankliniella occidentalis, sprayed sunflower leaf discs; conditions: foliar, 168 h, application rate of 200 ppm, population of mixed ages, 7 days after infestation
Procedure: as §1, with “in” for “in a”, “plates” for “plate”, “10,000” for “10,000 ppm”, “drying” for “drying,”, “a Frankliniella” for “an aphid”, “7” for “6”

[6] = tested on: Euschistus heros(Neotropical Brown Stink Bug); experiment: Activity against Euschistus heros, sprayed soybean leaf; conditions: 120 h, application rate of 200 ppm, N-2 nymphs, 5 days after infestation, read-out: effect in at least one of the two categories (mortality or growth inhibition)
Procedure: Soybean leaf on agar in 24-well microtiter plates were sprayed with aqueous test solutions prepared from 10,000 ppm DMSO stock solutions. After drying the leaf were infested with N-2 nymphs. The samples were assessed for mortality and growth inhibition in comparison to untreated samples 5 days after infestation.

[7] = tested on: Diabrotica Balteata (Corn Root Worm); experiment: Activity against Diabrotica balteata, sprayed maize sprouts; conditions: 96 h, application rate of 200 ppm, L2 larvae, 4 days after infestation, read-out: effect in at least one of the two categories (mortality or growth inhibition)
Procedure: Maize sprouts, placed on an agar layer in 24-well microtiter plates were treated with aqueous test solutions prepared from 10,000 ppm DMSO stock solutions by spraying. After drying, the plates were infested with L2 larvae (6 to 10 per well). The samples were assessed for mortality and growth inhibition in comparison to untreated samples 4 days after infestation.

[8] = tested on: Plutella xylostella (Diamond Back Moth); experiment: Activity against Plutella xylostella, treated artificial diet; conditions: 120 h, application rate of 200 ppm, L2 larvae, 5 days after infestation, read-out: effect in at least one of the two categories (mortality or growth inhibition)
Procedure: 24-well microtiter plates with artificial diet were treated with aqueous test solutions prepared from 10,000 ppm DMSO stock solutions by pipetting. After drying, the plates were infested with L2 larvae (10 to 15 per well). The samples were assessed for mortality and growth inhibition in comparison to untreated samples 5 days after infestation.

[9] = tested on: Myzus persicae (Green Peach Aphid); experiment: Activity against Myzus persicae, systemic via roots of pea seedlings; conditions: 144 h, test rate of 24 ppm, roots of pea seedlings in test solution, 6 days
Procedure: Roots of pea seedlings infested with an aphid population of mixed ages were placed directly in the aqueous test solutions prepared from 10,000 DMSO stock solutions. The samples were assessed for mortality 6 days after placing seedlings in test solutions.

[10] = tested on: Bemisia tabaci (Cotton White Fly); experiment: Activity against Bemisia tabaci, sprayed cotton leaf discs; conditions: foliar, 144 h, application rate of 200 ppm, adult white flies, 6 days after incubation
Procedure: Cotton leaf discs were placed on agar in 24-well microtiter plates and sprayed with aqueous test solutions prepared from 10,000 ppm DMSO stock solutions. After drying the leaf discs were infested with adult white flies. The samples were checked for mortality 6 days after incubation.

CCS(=O)(=O)c1cc(-n2cc(Cl)cn2)cnc1-c1nnc(-c2cc(C(F)(F)F)ccn2)n1C [Compound P7]
≥ 80%: mortality at 200 ppm [1] | mortality at 200 ppm [2] | percent control (mortality, anti-feedancy or growth inhibition) at 12.5 ppm [3] | mortality at 200 ppm [4] | mortality at 200 ppm [5] | percent effect (mortality or growth inhibition) at 200 ppm [6] | percent effect (mortality or growth inhibition) at 200 ppm [7] | percent effect (mortality or growth inhibition) at 200 ppm [8]

CCS(=O)(=O)c1cc(-c2ncccn2)cnc1-c1nnc(-c2cc(C(F)(F)F)ccn2)n1C [Compound P9, 2-[5-ethylsulfonyl-6-[4-methyl-5-[4-(trifluoromethyl)-2-pyridyl]-1,2,4-triazol-3-yl]-3-pyridyl]pyrimidine]
≥ 80%: mortality at 200 ppm [1] | mortality at 24 ppm [9] | mortality at 200 ppm [2] | percent control (mortality, anti-feedancy or growth inhibition) at 12.5 ppm [3] | mortality at 200 ppm [5] | percent effect (mortality or growth inhibition) at 200 ppm [6] | percent effect (mortality or growth inhibition) at 200 ppm [7] | percent effect (mortality or growth inhibition) at 200 ppm [8]

C=C(OCC)c1cnc(-c2nnc(-c3cc(C(F)(F)F)ccn3)n2C)c(S(=O)(=O)CC)c1 [Compound P13]
≥ 80%: mortality at 200 ppm [1] | mortality at 200 ppm [2] | mortality at 200 ppm [4] | mortality at 200 ppm [5] | percent effect (mortality or growth inhibition) at 200 ppm [7] | percent effect (mortality or growth inhibition) at 200 ppm [8]

CCS(=O)(=O)c1cc(-n2cnc(C#N)c2)cnc1-c1nnc(-c2cc(C(F)(F)F)ccn2)n1C [Compound P15]
≥ 80%: mortality at 24 ppm [9] | mortality at 200 ppm [4]

CCS(=O)(=O)c1cc(-c2ccc(C#N)cn2)cnc1-c1nnc(-c2cc(C(F)(F)F)ccn2)n1C [Compound P22]
≥ 80%: mortality at 200 ppm [1] | mortality at 200 ppm [2] | percent control (mortality, anti-feedancy or growth inhibition) at 12.5 ppm [3] | mortality at 200 ppm [4] | mortality at 200 ppm [5] | percent effect (mortality or growth inhibition) at 200 ppm [6] | percent effect (mortality or growth inhibition) at 200 ppm [7] | percent effect (mortality or growth inhibition) at 200 ppm [8]

CCS(=O)(=O)c1cc(-c2cc(C#N)ccn2)cnc1-c1nnc(-c2cc(C(F)(F)F)ccn2)n1C [Compound P23]
≥ 80%: mortality at 200 ppm [1] | mortality at 24 ppm [9] | mortality at 200 ppm [2] | percent control (mortality, anti-feedancy or growth inhibition) at 12.5 ppm [3] | mortality at 200 ppm [4] | mortality at 200 ppm [5] | percent effect (mortality or growth inhibition) at 200 ppm [6] | percent effect (mortality or growth inhibition) at 200 ppm [7] | percent effect (mortality or growth inhibition) at 200 ppm [8]

CCS(=O)(=O)c1cc(-c2ccc(Cl)cn2)cnc1-c1nnc(-c2cc(C(F)(F)F)ccn2)n1C [Compound P25]
≥ 80%: mortality at 200 ppm [1] | percent control (mortality, anti-feedancy or growth inhibition) at 12.5 ppm [3] | mortality at 200 ppm [4] | percent effect (mortality or growth inhibition) at 200 ppm [6] | percent effect (mortality or growth inhibition) at 200 ppm [7] | percent effect (mortality or growth inhibition) at 200 ppm [8]

CCS(=O)(=O)c1cc(-c2cc(Cl)ccn2)cnc1-c1nnc(-c2cc(C(F)(F)F)ccn2)n1C [Compound P26]
≥ 80%: mortality at 200 ppm [1] | mortality at 200 ppm [2] | percent control (mortality, anti-feedancy or growth inhibition) at 12.5 ppm [3] | mortality at 200 ppm [4] | mortality at 200 ppm [5] | percent effect (mortality or growth inhibition) at 200 ppm [6] | percent effect (mortality or growth inhibition) at 200 ppm [7] | percent effect (mortality or growth inhibition) at 200 ppm [8]

CCS(=O)(=O)c1cc(C2CC2)cnc1-c1nnc(-c2cc(C(F)(F)F)ccn2)n1C [Compound P29, 5-cyclopropyl-3-ethylsulfonyl-2-[4-methyl-5-[4-(trifluoromethyl)-2-pyridyl]-1,2,4-triazol-3-yl]pyridine]
≥ 80%: mortality at 200 ppm [1] | mortality at 24 ppm [9] | mortality at 200 ppm [2] | percent control (mortality, anti-feedancy or growth inhibition) at 12.5 ppm [3] | mortality at 200 ppm [4] | percent effect (mortality or growth inhibition) at 200 ppm [7] | percent effect (mortality or growth inhibition) at 200 ppm [8]

CCS(=O)(=O)c1ccc(-c2ccc(C(F)(F)F)cc2)nc1-c1nnc(-c2cc(C(F)(F)F)ccn2)n1C [Compound P32, 3-ethylsulfonyl-2-[4-methyl-5-[4-(trifluoromethyl)-2-pyridyl]-1,2,4-triazol-3-yl]-6-[4-(trifluoromethyl)phenyl]pyridine]
≥ 80%: mortality at 200 ppm [1] | mortality at 200 ppm [10] | mortality at 200 ppm [4] | percent effect (mortality or growth inhibition) at 200 ppm [7] | percent effect (mortality or growth inhibition) at 200 ppm [8]

CCS(=O)(=O)c1ccc(-n2cncn2)nc1-c1nnc(-c2cc(C(F)(F)F)ccn2)n1C [Compound P37]
≥ 80%: mortality at 200 ppm [1] | mortality at 24 ppm [9] | mortality at 200 ppm [10] | mortality at 200 ppm [2] | percent effect (mortality or growth inhibition) at 200 ppm [6] | percent effect (mortality or growth inhibition) at 200 ppm [7] | percent effect (mortality or growth inhibition) at 200 ppm [8]

CCS(=O)(=O)c1ccc(-c2ncccn2)nc1-c1nnc(-c2cc(C(F)(F)F)ccn2)n1C [Compound P39]
≥ 80%: mortality at 200 ppm [1] | mortality at 24 ppm [9] | mortality at 200 ppm [2] | percent control (mortality, anti-feedancy or growth inhibition) at 12.5 ppm [3] | percent effect (mortality or growth inhibition) at 200 ppm [6] | percent effect (mortality or growth inhibition) at 200 ppm [7] | percent effect (mortality or growth inhibition) at 200 ppm [8]

CCS(=O)(=O)c1cc(-n2cncn2)cnc1-c1nnc(-c2cc(C(F)(F)F)ncn2)n1C [Compound P46]
≥ 80%: mortality at 24 ppm [9] | mortality at 200 ppm [2] | mortality at 200 ppm [5] | percent effect (mortality or growth inhibition) at 200 ppm [7]

CCS(=O)(=O)c1ccc(-n2cncn2)nc1-c1nnc(-c2cc(C(F)(F)F)ncn2)n1C [Compound P47]
≥ 80%: mortality at 24 ppm [9] | mortality at 200 ppm [2] | percent effect (mortality or growth inhibition) at 200 ppm [6] | percent effect (mortality or growth inhibition) at 200 ppm [7]

CCS(=O)(=O)c1ccc(-n2cnc(Cl)n2)nc1-c1nnc(-c2cc(C(F)(F)F)ncn2)n1C [Compound P48, 4-[5-[6-(3-chloro-1,2,4-triazol-1-yl)-3-ethylsulfonyl-2-pyridyl]-4-methyl-1,2,4-triazol-3-yl]-6-(trifluoromethyl)pyrimidine]
≥ 80%: mortality at 200 ppm [1] | mortality at 200 ppm [10] | mortality at 200 ppm [2] | percent control (mortality, anti-feedancy or growth inhibition) at 12.5 ppm [3] | mortality at 200 ppm [5] | percent effect (mortality or growth inhibition) at 200 ppm [6] | percent effect (mortality or growth inhibition) at 200 ppm [7] | percent effect (mortality or growth inhibition) at 200 ppm [8]

CCS(=O)(=O)c1ccc(-c2ncccn2)nc1-c1nnc(-c2cc(C(F)(F)F)ncn2)n1C [Compound P54]
≥ 80%: mortality at 24 ppm [9] | mortality at 200 ppm [2] | mortality at 200 ppm [5] | percent effect (mortality or growth inhibition) at 200 ppm [6] | percent effect (mortality or growth inhibition) at 200 ppm [7] | percent effect (mortality or growth inhibition) at 200 ppm [8]
